Ends that are not written are not given here.
Experiments:
[1] = tested on: peptide-pulsed T2; assay: IFN-gamma ELISPOT assay on CTLs induced with peptide (HLA-A*0201); type: cell-based, human; settings: CTLs from HLA-A*0201 positive donor, 3 rounds of stimulation, day 21; vs control wells without peptide
Description: Monocyte-derived dendritic cells (DCs) were used as antigen-presenting cells to induce cytotoxic T lymphocyte (CTL) responses against peptides presented on human leukocyte antigen (HLA). DCs were generated in vitro as described elsewhere (Nakahara S et al., Cancer Res 2003 Jul. 15, 63(14): 4112-8). Specifically, peripheral blood mononuclear cells (PBMCs) isolated from a normal volunteer (HLA-A*0201 positive) by Ficoll-Plaque (Pharmacia) solution were separated by adherence to a plastic tissue culture dish (Becton Dickinson) so as to enrich them as the monocyte fraction. The monocyte-enriched population was cultured in the presence of 1,000 U/ml of granulocyte-macrophage colony-stimulating factor (R&D System) and 1,000 U/ml of interleukin (IL)-4 (R&D System) in AIM-V Medium (Invitrogen) containing 2% heat-inactivated autologous serum (AS). After 7 days of culture, the cytokine-induced DCs were pulsed with 20 micro-g/ml of each of the synthesized peptides in the presence of 3 micro-g/ml of beta 2-microglobulin for 3 hrs at 37 degrees C. in AIM-V Medium. The generated cells appeared to express DC-associated molecules, such as CD80, CD83, CD86 and HLA class II, on their cell surfaces (data not shown). These peptide-pulsed DCs were then inactivated by X-irradiated (20 Gy) and mixed at a 1:20 ratio with autologous CD8+ T cells, obtained by positive selection with CD8 positive Isolation Kit (Dynal). These cultures were set up in 48-well plates (Corning); each well contained 1.5×10^4 peptide-pulsed DCs, 3×10^5 CD8+ T cells and 10 ng/ml of IL-7 (R&D System) in 0.5 ml of AIM-V/2% AS medium. Three days later, these cultures were supplemented with IL-2 (CHIRON) to a final concentration of 20 IU/ml. On days 7 and 14, the T cells were further stimulated with the autologous peptide-pulsed DCs. The DCs were prepared each time by the same way described above. CTL was tested against peptide-pulsed T2 cells after the 3rd round of peptide stimulation on day 21 (Tanaka H et al., Br J Cancer 2001 Jan. 5, 84(1): 94-9; Umano Y et al., Br J Cancer 2001 Apr. 20, 84(8): 1052-7; Uchida N et al., Clin Cancer Res 2004 Dec. 15, 10(24): 8577-86; Suda T et al., Cancer Sci 2006 May, 97(5): 411-9; Watanabe T et al., Cancer Sci 2005 August, 96(8): 498-506).
(§1) To examine specific CTL activity, interferon (IFN)-gamma enzyme-linked immunospot (ELISPOT) assay and IFN-gamma enzyme-linked immunosorbent assay (ELISA) were performed. Specifically, peptide-pulsed T2 (1×10^4/well) was prepared as stimulator cells. Cultured cells in 48 wells were used as responder cells. IFN-gamma ELISPOT assay and IFN-gamma ELISA assay were performed under manufacture procedure.

[2] = tested on: peptide-pulsed T2; assay: IFN-gamma ELISA assay of CTL lines (HLA-A*0201); type: cell-based, human; settings: target cells pulsed with corresponding peptide vs without peptide pulse
Procedure: CTLs were expanded in culture using the method similar to the one described by Riddell et al. (Walter E A et al., N Engl J Med 1995 Oct. 19, 333(16): 1038-44; Riddell S R et al., Nat Med 1996 February, 2(2): 216-23). A total of 5×10^4 CTLs were suspended in 25 ml of AIM-V/5% AS medium with 2 kinds of human B-lymphoblastoid cell lines, inactivated by Mitomycin C, in the presence of 40 ng/ml of anti-CD3 monoclonal antibody (Pharmingen). One day after initiating the cultures, 120 IU/ml of IL-2 were added to the cultures. The cultures were fed with fresh AIM-V/5% AS medium containing 30 IU/ml of IL-2 on days 5, 8 and 11 (Tanaka H et al., Br J Cancer 2001 Jan. 5, 84(1): 94-9; Umano Y et al., Br J Cancer 2001 Apr. 20, 84(8): 1052-7; Uchida N et al., Clin Cancer Res 2004 Dec. 15, 10(24): 8577-86; Suda T et al., Cancer Sci 2006 May, 97(5): 411-9; Watanabe T et al., Cancer Sci 2005 August, 96(8): 498-506).
as §1

[3] = tested on: COS7 cells transfected with C6orf167 and HLA-A*0201; assay: Specific CTL activity against target cells exogenously expressing C6orf167 and HLA-A*0201; type: cell-based, African green monkey; settings: for Specific CTL activity against control COS7 cells: COS7 transfected with either full length C6orf167 or HLA-A*0201 alone; for Specific CTL activity against COS7 cells expressing both C6orf167 and HLA-A*0201: CTL line (SEQ ID NO: 79) or CTL clone (SEQ ID NO: 114) as effector cells
Description: The cDNA encoding an open reading frame of target genes or HLA-A*0201 was amplified by PCR. The PCR-amplified product was cloned into pCAGGS vector and pIRES vector (Clontech Laboratories, Inc., Cat. No. 631605). The plasmids were transfected into COS7, which is the target genes and HLA-A*0201-null cell line, using lipofectamine 2000 (Invitrogen) according to the manufacturer's recommended procedures. After 2 days from transfection, the transfected cells were harvested with versene (Invitrogen) and used as the target cells (5×10^4 cells/well) for CTL activity assay.
The established CTL lines and clones raised against each peptide were examined for the ability to recognize target cells that endogenously express C6orf167 and HLA-A*0201 molecule. Specific CTL activity against COS7 cells which transfected with both the full length of C6orf167 and HLA-A*0201 gene (a specific model for the target cells that exogenously express C6orf167 and HLA-A*0201 gene) was tested by using the CTL lines and clones raised by corresponding peptide as the effector cells. COS7 cells transfected with either full length of C6orf167 or HLA-A*0201 were prepared as the controls.

[4] = tested on: peptide-pulsed T2; assay: IFN-gamma ELISA assay of CTL clones (HLA-A*0201); type: cell-based, human; settings: clones by limiting dilution; target cells pulsed with peptide
Procedure: The dilutions were made to have 0.3, 1, and 3 CTLs/well in 96 round-bottomed micro titer plate (Nalge Nunc International). CTLs were cultured with 1×10^4 cells/well of 2 kinds of human B-lymphoblastoid cell lines, 30 ng/ml of anti-CD3 antibody, and 125 U/ml of IL-2 in a total of 150 micro-l/well of AIM-V Medium containing 5% AS. 50 micro-1/well of IL-2 were added to the medium 10 days later so to reach a final concentration of 125 U/ml IL-2. CTL activity was tested on the 14th day, and CTL clones were expanded using the same method as described above (Uchida N et al., Clin Cancer Res 2004 Dec. 15, 10(24): 8577-86; Suda T et al., Cancer Sci 2006 May, 97(5): 411-9; Watanabe T et al., Cancer Sci 2005 August, 96(8): 498-506).
as §1

Substance	Peptide specific CTL activity: IFN-gamma production by ELISPOT [1]	IFN-gamma production of CTL lines by ELISA [2]	Specific CTL activity against control COS7 cells [3]	Specific CTL activity against COS7 cells expressing both C6orf167 and HLA-A*0201 [3]	IFN-gamma production of CTL clones by ELISA [4]
TLLSiYIDGV (TLLSIYIDGV; not fully specified; printed as TLLSiYIDGV) [SEQ ID NO: 114]	potent IFN-gamma production	potent IFN-gamma production	no significant specific CTL activity	potent CTL activity	Potent IFN-gamma productions
TLLCDLISL [SEQ ID NO: 79]	potent IFN-gamma production	potent IFN-gamma production	no significant specific CTL activity	potent CTL activity	Potent IFN-gamma productions

— US20120128705A1, “C6ORF167 PEPTIDES AND VACCINES CONTAINING THE SAME” (OncoTherapy Science, Inc., priority 2009, published 2012)
